Like-named read-outs stand apart in the source and are kept apart here.
Target: T1, BRM (Homo sapiens, UniProt P51531)
T1 construct: In-Cell Western Screen of BRM Degradation in SW1573 Cells; endogenous in cells; host or cells: SW1573
Test: In-cell Western screen of BRM degradation in SW1573 cells (Dmax and DC50)
Assay type: cell-based
How it was run: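 Overnight compound treatment (18-20 h, final DMSO 0.1%) of SW1573 cells in DMEM with 10% FBS precedes fixation and in-cell Western staining with 800/680 nm dye-labelled secondaries. Plate images give DC50 and maximal degradation.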

[1] = BRM degradation, SW1573 cells, read-out: DC50
[2] = BRM degradation, SW1573 cells, read-out: Dmax (% degraded)
[3] = target protein degradation, read-out: BRM DC50
[4] = BRM degradation, SW1573 cells, when tested at the top concentration of between 0.3 and 10 μM, read-out: Dmax (%) (% degraded)

T1 sequence (P51531 whole entry): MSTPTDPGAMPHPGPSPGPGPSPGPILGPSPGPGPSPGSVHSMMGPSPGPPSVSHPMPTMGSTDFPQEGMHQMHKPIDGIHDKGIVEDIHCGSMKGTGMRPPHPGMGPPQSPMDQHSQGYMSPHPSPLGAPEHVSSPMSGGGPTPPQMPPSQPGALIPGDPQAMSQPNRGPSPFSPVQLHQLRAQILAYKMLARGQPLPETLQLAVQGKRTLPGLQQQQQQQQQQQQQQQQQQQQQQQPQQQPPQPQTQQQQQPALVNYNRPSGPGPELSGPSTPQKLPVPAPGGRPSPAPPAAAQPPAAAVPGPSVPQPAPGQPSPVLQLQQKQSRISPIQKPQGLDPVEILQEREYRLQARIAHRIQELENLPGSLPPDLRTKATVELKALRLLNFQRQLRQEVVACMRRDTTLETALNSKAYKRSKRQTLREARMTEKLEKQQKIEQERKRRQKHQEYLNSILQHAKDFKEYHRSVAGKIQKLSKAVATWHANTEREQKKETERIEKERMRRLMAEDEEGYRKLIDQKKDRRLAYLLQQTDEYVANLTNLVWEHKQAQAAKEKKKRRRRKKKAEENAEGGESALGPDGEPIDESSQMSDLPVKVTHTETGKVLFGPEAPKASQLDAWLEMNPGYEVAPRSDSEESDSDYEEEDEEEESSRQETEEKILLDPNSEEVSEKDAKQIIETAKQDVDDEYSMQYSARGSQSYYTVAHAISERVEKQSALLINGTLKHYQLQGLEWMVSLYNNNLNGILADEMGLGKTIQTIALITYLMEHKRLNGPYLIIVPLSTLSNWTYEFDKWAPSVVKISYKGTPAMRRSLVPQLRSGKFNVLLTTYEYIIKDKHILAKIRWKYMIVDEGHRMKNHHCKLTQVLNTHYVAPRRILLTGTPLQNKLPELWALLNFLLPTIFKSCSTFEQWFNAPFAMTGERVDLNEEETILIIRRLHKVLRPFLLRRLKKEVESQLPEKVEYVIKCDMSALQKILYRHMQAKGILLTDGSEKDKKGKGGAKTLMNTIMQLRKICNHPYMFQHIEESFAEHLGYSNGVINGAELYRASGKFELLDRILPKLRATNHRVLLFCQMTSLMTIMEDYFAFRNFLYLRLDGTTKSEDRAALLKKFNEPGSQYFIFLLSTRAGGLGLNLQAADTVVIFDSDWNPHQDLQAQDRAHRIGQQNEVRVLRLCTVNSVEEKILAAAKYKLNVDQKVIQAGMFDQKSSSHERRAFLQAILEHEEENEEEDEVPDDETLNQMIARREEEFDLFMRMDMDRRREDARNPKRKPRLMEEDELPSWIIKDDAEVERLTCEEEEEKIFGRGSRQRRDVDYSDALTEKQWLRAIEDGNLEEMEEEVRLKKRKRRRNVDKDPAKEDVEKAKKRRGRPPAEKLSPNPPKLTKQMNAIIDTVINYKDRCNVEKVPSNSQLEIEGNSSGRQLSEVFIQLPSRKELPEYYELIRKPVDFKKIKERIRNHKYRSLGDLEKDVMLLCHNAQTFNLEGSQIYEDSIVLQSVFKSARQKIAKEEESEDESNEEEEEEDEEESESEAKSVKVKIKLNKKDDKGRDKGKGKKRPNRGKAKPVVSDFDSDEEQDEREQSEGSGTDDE

Structure (SMILES)	DC50 [1]	Dmax [2]	also measured
Cc1ncsc1-c1ccc([C@H](C)NC(=O)[C@@H]2C[C@@H](O)CN2C(=O)[C@H](c2cc(N3CCC(F)(CN4CCC(O[C@H]5C[C@H](Oc6cc(N7C8CCC7CN(c7cc(-c9ccccc9O)nnc7N)C8)ccn6)C5)CC4)CC3)no2)C(C)C)cc1 [compound 682, (2S,4R)-1-((2S)-2-(3-(4-((4-((1r,3r)-3-((4-(3-(3-amino-6-(2-hydroxyphenyl)pyridazin-4-yl)-3,8-diazabicyclo[3.2.1]octan-8-yl)pyridin-2-yl)oxy)cyclobutoxy)piperidin-1-yl)methyl)-4-fluoropiperidin-1-yl)isoxazol-5-yl)-3-methylbutanoyl)-4-hydroxy-N-((S)-1-(4-(4-methylthiazol-5-yl)phenyl)ethyl)pyrrolidine-2-carboxamide]	2.5 to 10 nM	> 75%	
Cc1ncsc1-c1ccc([C@H](C)NC(=O)[C@@H]2C[C@@H](O)CN2C(=O)[C@H](c2cc(OCC[C@H]3CC[C@H](O[C@H]4C[C@H](Oc5cc(N6C7CCC6CN(c6cc(-c8ccccc8O)nnc6N)C7)ccn5)C4)CC3)no2)C(C)C)cn1 [compound 485, (2S,4R)-1-((2S)-2-(3-(2-((1R,4S)-4-((1r,3S)-3-((4-(3-(3-amino-6-(2-hydroxyphenyl)pyridazin-4-yl)-3,8-diazabicyclo[3.2.1]octan-8-yl)pyridin-2-yl)oxy)cyclobutoxy)cyclohexyl)ethoxy)isoxazol-5-yl)-3-methylbutanoyl)-4-hydroxy-N-((S)-1-(6-(4-methylthiazol-5-yl)pyridin-3-yl)ethyl)pyrrolidine-2-carboxamide]			DC50 [3]: > 30 nM
Cc1ncsc1-c1ccc([C@H](C)NC(=O)[C@@H]2C[C@@H](O)CN2C(=O)[C@@H](c2cc(N3CCC4(CC3)CN(CC3CCN(C[C@H]5C[C@H](Oc6cc(N7C8CCC7CN(c7cc(-c9ccccc9O)nnc7N)C8)ccn6)C5)CC3)C4)no2)C(C)C)cc1 [compound 695, (2S,4R)-1-((2R)-2-(3-(2-((1-(((1r,3r)-3-((4-(3-(3-amino-6-(2-hydroxyphenyl)pyridazin-4-yl)-3,8-diazabicyclo[3.2.1]octan-8-yl)pyridin-2-yl)oxy)cyclobutyl)methyl)piperidin-4-yl)methyl)-2,7-diazaspiro[3.5]nonan-7-yl)isoxazol-5-yl)-3-methylbutanoyl)-4-hydroxy-N-((S)-1-(4-(4-methylthiazol-5-yl)phenyl)ethyl)pyrrolidine-2-carboxamide]	< 2.5 nM	> 75%	
Cc1cc([C@@H](C(=O)N2C[C@H](O)C[C@H]2C(=O)N[C@@H](C)c2ccc(-c3scnc3C)cc2)[C@@H](C)CO[C@H]2C[C@@H](Oc3cc(N4C5CCC4CN(c4cc(-c6ccccc6O)nnc4N)C5)ccn3)C2)on1 [compound 481, (2S,4R)-1-((2S,3R)-4-((1s,3S)-3-((4-(3-(3-amino-6-(2-hydroxyphenyl)pyridazin-4-yl)-3,8-diazabicyclo[3.2.1]octan-8-yl)pyridin-2-yl)oxy)cyclobutoxy)-3-methyl-2-(3-methylisoxazol-5-yl)butanoyl)-4-hydroxy-N-((S)-1-(4-(4-methylthiazol-5-yl)phenyl)ethyl)pyrrolidine-2-carboxamide]			Dmax (SW1573, % degraded, when tested at the top concentration of between 0.3 and 10 μM, read-out: BRM Dmax (%)): > 75%; DC50 [3]: < 2.5 nM
Cc1ncoc1-c1ccc([C@H](C)NC(=O)[C@@H]2C[C@@H](O)CN2C(=O)[C@@H](c2cc(N3CCC(CN4CCC(O[C@H]5C[C@H](Oc6cc(N7C8CCC7CN(c7cc(-c9ccccc9O)nnc7N)C8)ccn6)C5)CC4)CC3)no2)C(C)C)cc1 [compound 674, (2S,4R)-1-((2R)-2-(3-(4-((4-((1r,3r)-3-((4-(3-(3-amino-6-(2-hydroxyphenyl)pyridazin-4-yl)-3,8-diazabicyclo[3.2.1]octan-8-yl)pyridin-2-yl)oxy)cyclobutoxy)piperidin-1-yl)methyl)piperidin-1-yl)isoxazol-5-yl)-3-methylbutanoyl)-4-hydroxy-N-((S)-1-(4-(4-methyloxazol-5-yl)phenyl)ethyl)pyrrolidine-2-carboxamide]	< 2.5 nM	> 75%	
COc1nc(-c2scnc2C)ccc1[C@H](C)NC(=O)[C@@H]1C[C@@H](O)CN1C(=O)[C@H](c1cc(OCCN2CCC(O[C@H]3C[C@H](Oc4cc(N5C6CCC5CN(c5cc(-c7ccccc7O)nnc5N)C6)ccn4)C3)CC2)no1)C(C)C [compound 278, (2S,4R)-1-((2S)-2-(3-(2-(4-((1r,3S)-3-((4-(3-(3-amino-6-(2-hydroxyphenyl)pyridazin-4-yl)-3,8-diazabicyclo[3.2.1]octan-8-yl)pyridin-2-yl)oxy)cyclobutoxy)piperidin-1-yl)ethoxy)isoxazol-5-yl)-3-methylbutanoyl)-4-hydroxy-N-((S)-1-(2-methoxy-6-(4-methylthiazol-5-yl)pyridin-3-yl)ethyl)pyrrolidine-2-carboxamide]	> 30 nM		
Cc1ncsc1-c1ccc([C@H](C)NC(=O)[C@@H]2C[C@@H](O)CN2C(=O)[C@H](c2cc(OCCOCCOCCOCCn3cc(-c4cc(-c5ccccc5O)nnc4N)cn3)no2)C(C)C)cc1 [compound 181, (2S,4R)-1-((S)-2-(3-(2-(2-(2-(2-(4-(3-amino-6-(2-hydroxyphenyl)pyridazin-4-yl)-1H-pyrazol-1-yl)ethoxy)ethoxy)ethoxy)ethoxy)isoxazol-5-yl)-3-methylbutanoyl)-4-hydroxy-N-((S)-1-(4-(4-methylthiazol-5-yl)phenyl)ethyl)pyrrolidine-2-carboxamide]	> 30 nM		
Cc1ncsc1-c1ccc([C@H](C)NC(=O)[C@@H]2C[C@@H](O)CN2C(=O)[C@@H](c2cc(OCCN3CC[C@H](O[C@H]4C[C@H](Oc5cc(N6C7CCC6CN(c6cc(-c8ccccc8O)nnc6N)C7)ccn5)C4)C[C@H]3C)no2)C(C)C)cc1 [compound 628, (2S,4R)-1-((2R)-2-(3-(2-((2R,4S)-4-((1r,3S)-3-((4-(3-(3-amino-6-(2-hydroxyphenyl)pyridazin-4-yl)-3,8-diazabicyclo[3.2.1]octan-8-yl)pyridin-2-yl)oxy)cyclobutoxy)-2-methylpiperidin-1-yl)ethoxy)isoxazol-5-yl)-3-methylbutanoyl)-4-hydroxy-N-((S)-1-(4-(4-methylthiazol-5-yl)phenyl)ethyl)pyrrolidine-2-carboxamide]	< 2.5 nM	> 75%	
Cc1ncsc1-c1ccc([C@H](C)NC(=O)[C@@H]2C[C@@H](O)CN2C(=O)[C@@H](c2cc(N3CCC(C(C)N4CCC(O[C@H]5C[C@H](Oc6cc(N7C8CCC7CN(c7cc(-c9ccccc9O)nnc7N)C8)ccn6)C5)CC4)CC3)no2)C(C)C)cc1 (stereo partly drawn) [compound 644, (2S,4R)-1-((2R)-2-(3-(4-(1-(4-((1r,3r)-3-((4-(3-(3-amino-6-(2-hydroxyphenyl)pyridazin-4-yl)-3,8-diazabicyclo[3.2.1]octan-8-yl)pyridin-2-yl)oxy)cyclobutoxy)piperidin-1-yl)ethyl)piperidin-1-yl)isoxazol-5-yl)-3-methylbutanoyl)-4-hydroxy-N-((S)-1-(4-(4-methylthiazol-5-yl)phenyl)ethyl)pyrrolidine-2-carboxamide]	< 2.5 nM	> 75%	
Cc1ncsc1-c1ccc(CNC(=O)[C@@H]2C[C@@H](O)CN2C(=O)[C@@H](c2cc(OCCN3CCN(CCCc4cc(N5C6CCC5CN(c5cc(-c7ccccc7O)nnc5N)C6)ccn4)CC3)no2)C(C)C)cc1 [compound 44, (2S,4R)-1-[(2R)-2-[3-(2-[4-[3-(4-[3-[3-amino-6-(2-hydroxyphenyl)pyridazin-4-yl]-3,8-diazabicyclo[3.2.1]octan-8-yl]pyridin-2-yl)propyl]piperazin-1-yl]ethoxy)-1,2-oxazol-5-yl]-3-methylbutanoyl]-4-hydroxy-N-[[4-(4-methyl-1,3-thiazol-5-yl)phenyl]methyl]pyrrolidine-2-carboxamide]	10 to 30 nM		Dmax [4]: > 75%
Cc1ncsc1-c1ccc([C@H](C)NC(=O)[C@@H]2C[C@@H](O)CN2C(=O)[C@@H](c2cc(N3CCC(CN4CCC(OC5CC(Oc6cc(N7C8CC[C@@H]7CN(c7cc(-c9ccccc9O)nnc7N)C8)ccn6)C5)CC4)CC3)no2)C(C)C)cc1O (stereo partly drawn) [compound 691, (2S,4R)-1-((2R)-2-(3-(4-((4-((1r,3r)-3-((4-(3-(3-amino-6-(2-hydroxyphenyl)pyridazin-4-yl)-3,8-diazabicyclo[3.2.1]octan-8-yl)pyridin-2-yl)oxy)cyclobutoxy)piperidin-1-yl)methyl)piperidin-1-yl)isoxazol-5-yl)-3-methylbutanoyl)-4-hydroxy-N-((S)-1-(3-hydroxy-4-(4-methylthiazol-5-yl)phenyl)ethyl)pyrrolidine-2-carboxamide]	< 2.5 nM		Dmax (% degraded) (BRM degradation, SW1573 cells): A (A > 75)
CC(C)[C@@H](C(=O)N1C[C@H](O)C[C@H]1C(=O)N[C@@H](C)c1ccc(-c2nccn2C)cc1)c1cc(OCCN2CCN(CCOc3cc(N4C5CCC4CN(c4cc(-c6ccccc6O)nnc4N)C5)ccn3)CC2)no1 [compound 115, (2S,4R)-1-((2R)-2-(3-(2-(4-(2-((4-(3-(3-amino-6-(2-hydroxyphenyl)pyridazin-4-yl)-3,8-diazabicyclo[3.2.1]octan-8-yl)pyridin-2-yl)oxy)ethyl)piperazin-1-yl)ethoxy)isoxazol-5-yl)-3-methylbutanoyl)-4-hydroxy-N-((S)-1-(4-(1-methyl-1H-imidazol-2-yl)phenyl)ethyl)pyrrolidine-2-carboxamide]	> 30 nM		Dmax [4]: 50 to 75%
